Test system: Nanjungud rasbale banana
Assay: Ripening of banana: NO donors versus hypoxia-induced NO
Type: in vivo
Conditions: SNAP 100 μM, chitosan 1%
Method: Effects of using hypoxia-induced NO on fruit ripening were tested against the available NO donors such as SNP (Sodium nitroprusside), SNAP (S-Nitroso-N-acetyl-dl-penicillamine), chitosan on Nanjungud rasbale banana. Physiological concentrations of NO donors were used and the concentration for SNP used was 1 mM, SNAP was used in a concentration of 100 μM, chitosan was used in a concentration of 1%. Out of all the treatments, hypoxia-induced NO yielded better results where a significant delay of ripening was observed (Table-1). SNP and chitosan were effective up to 2 days but later they were ineffective on delaying ripening. Even after 3 days of treatment only one fruit ripened in the presence of formula in comparison to other treatments where 60% of fruits were ripened (FIG. 10). […] It was observed that the delay in ripening of bananas by the method of the present disclosure was 7 days as compared to the bananas which were not treated by the method of the present disclosure.

For `CC(=O)NC(C(=O)O)C(C)(C)SN=O` (racemic) [SNAP, S-Nitroso-N-acetyl-dl-penicillamine], the “Number of fruits ripened” value (Day 0, SNP 1 mM) was 0, the “Number of fruits ripened” value (Day 1, SNP 1 mM) was 0 and the “Number of fruits ripened” value (Day 2, SNP 1 mM) was 2. For the same compound, the “Number of fruits ripened” value (Day 3, SNP 1 mM) was 4.

Source: US12310380B2, “Method for extending shelf-life of agricultural produce” (National Institute of Plant Genome Research, priority 2019, dated 2025)
